Measured values from ChEMBL document CHEMBL3751821, “The semi-synthesis of novel andrographolide analogues and anti-influenza virus activity evaluation of their derivatives” (Bioorg Med Chem Lett, 2016).
≈ marks a conversion by molar mass, not a printed value.

How the values were obtained:
[1] = Therapeutic index, ratio of TC50 for MDCK cells to IC50 for Influenza A virus H3N2 A3/JINGKE/30/95; assay type: cell-based; conditions: dog, read-out: TI
[2] = (§1) Cytotoxicity against MDCK cells after 72 hrs by MTT assay; assay type: cell-based, Canis lupus familiaris; conditions: dog, MDCK cells; read-out: TC50
Influenza A virus H3N2 = assay: Antiviral activity against Influenza A virus H3N2 A3/JINGKE/30/95 infected in MDCK cells assessed as inhibition of virus-induced cytopathic effect after 72 hrs; assay type: functional, organism-based
MDCK = assay: as §1; assay type: cell-based, Canis lupus familiaris; conditions: dog, mdck, 72 h
[3] = Influenza A virus, A3/JINGKE/30/95, MDCK, 72 h, read-out: IC50

| SMILES | selectivity ratio [1] | CC50 at 72 h [2] [µg/mL] | IC50 (Influenza A virus H3N2; [3]) [µg/mL] | IC50 (Influenza A virus H3N2; mdck) | TC50 (MDCK) |
| --- | --- | --- | --- | --- | --- |
| C[C@]1(CO)[C@H]2CC=C(Cn3ccc(N)nc3=O)[C@@H](CCC3=CCOC3=O)[C@]2(C)CC[C@H]1O | 2.64 | 491 (≈ 1110 µM) | 186 (≈ 419 µM) | – | – |
| C[C@@]1(CO)[C@H](O)CC[C@@]2(C)C(CCC3=CCOC3=O)=C(Cn3cncn3)CC[C@H]12 | – | > 200 | – | Not Active | – |
| C[C@@]1(CO)[C@H](O)CC[C@@]2(C)C(CCC3=CCOC3=O)=C(Cn3ccc(N)nc3=O)CC[C@H]12 | – | > 200 | – | Not Active | – |
| C[C@]1(CO)[C@H]2CC=C(Cn3ccnc3)[C@@H](CCC3=CCOC3=O)[C@]2(C)CC[C@H]1O | 1.05 | 212 (≈ 529 µM) | 201 (≈ 502 µM) | – | – |
| C[C@]1(CO)[C@H]2CC=C(Cn3ccc(=O)[nH]c3=O)[C@@H](CCC3=CCOC3=O)[C@]2(C)CC[C@H]1O | – | – | 192 (≈ 431 µM) | – | Non-toxic |
| C[C@@]1(CO)[C@H](O)CC[C@@]2(C)C(CCC3=CCOC3=O)=C(Cn3ccnc3)CC[C@H]12 | – | > 200 | – | Not Active | – |
| C[C@@]12CC[C@@H](O)[C@@](C)(CO)C1CCC(CO)=C2CCC1=CCOC1=O (single isomer, unassigned) | – | 124 (≈ 355 µM) | – | Not Active | – |
| C[C@@]1(CO)[C@H](O)CC[C@@]2(C)C(CCC3=CCOC3=O)=C(CN3CCOCC3)CC[C@H]12 | – | > 200 | – | Not Active | – |
| C[C@]1(CO)[C@H]2CC=C(Cn3cnc4ncnc(N)c43)[C@@H](CCC3=CCOC3=O)[C@]2(C)CC[C@H]1O | 2.72 | 524 (≈ 1120 µM) | 192 (≈ 411 µM) | – | – |
| C[C@]1(CO)[C@H]2CC=C(CNCc3ccccc3)[C@@H](CCC3=CCOC3=O)[C@]2(C)CC[C@H]1O | 7.91 | 965 (≈ 2190 µM) | 122 (≈ 277 µM) | – | – |
| NC(=O)c1ncn([C@@H]2O[C@H](CO)[C@@H](O)[C@H]2O)n1 [RIBAVIRIN] | 37.4 | 3280 (≈ 13400 µM) | 87.7 (≈ 359 µM) | – | – |
| C[C@]1(CO)[C@H]2CC=C(CN3CCOCC3)[C@@H](CCC3=CCOC3=O)[C@]2(C)CC[C@H]1O | – | – | – | Not Active | Non-toxic |
| C=C1CC[C@@H]2[C@](C)(CO)[C@H](O)CC[C@@]2(C)[C@@H]1CC(C1=CCOC1=O)S(=O)(=O)[O-].[Na+] (some centres not stated) | 12.9 | 2280 | 176 | – | – |
| C[C@]1(CO)C2CC=C(CO)[C@@H](CCC3=CCOC3=O)[C@]2(C)CC[C@H]1O (single isomer, unassigned) | 3.44 | 678 (≈ 1940 µM) | 197 (≈ 562 µM) | – | – |
| C[C@]1(CO)[C@H]2CC=C(Cn3cccn3)[C@@H](CCC3=CCOC3=O)[C@]2(C)CC[C@H]1O | – | 122 (≈ 305 µM) | – | Not Active | – |
| Cc1cn(CC2=C(CCC3=CCOC3=O)[C@]3(C)CC[C@@H](O)[C@@](C)(CO)[C@H]3CC2)c(=O)[nH]c1=O | – | > 200 | – | Not Active | – |
| C[C@]1(CO)[C@H]2CC=C(Cn3cncn3)[C@@H](CCC3=CCOC3=O)[C@]2(C)CC[C@H]1O | – | – | – | Not Active | Non-toxic |
| C[C@@]1(CO)[C@H](O)CC[C@@]2(C)C(CCC3=CCOC3=O)=C(Cn3ccc(=O)[nH]c3=O)CC[C@H]12 | – | > 200 | – | Not Active | – |
| C[C@]1(CO)[C@H]2CC=C(CNC34CC5CC(CC(C5)C3)C4)[C@@H](CCC3=CCOC3=O)[C@]2(C)CC[C@H]1O | 14.8 | 2380 (≈ 4910 µM) | 161 (≈ 332 µM) | – | – |
| Cc1cn(CC2=CC[C@@H]3[C@](C)(CO)[C@H](O)CC[C@@]3(C)[C@@H]2CCC2=CCOC2=O)c(=O)[nH]c1=O | – | – | 201 (≈ 438 µM) | – | Non-toxic |
| C[C@@]1(CO)[C@H](O)CC[C@@]2(C)C(CCC3=CCOC3=O)=C(CNCc3ccccc3)CC[C@H]12 | – | > 200 | – | Not Active | – |
| C[C@@]1(CO)[C@H](O)CC[C@@]2(C)C(CCC3=CCOC3=O)=C(CNC34CC5CC(CC(C5)C3)C4)CC[C@H]12 | – | > 200 | – | Not Active | – |
